From patent US20160361330A1 (priority 2014, published 2016)
Several values for one entry are separate records, joined by “and”; a condition that tells them apart may be missing. Equal values may be shown once. Read-outs that look alike come from different tables or passages of the source.

How the values were obtained:
[1] = tested on: EBOV-GFP (Ebola virus expressing the GFP reporter gene); test: microbe, parasite or virus in culture; format: cell-based; conditions: Zaire ebolavirus, Huh-7, read-out: EC50 (nM) Reporter Virus EBOV-GFP Huh-7
[2] = tested on: ebolavirus (EBOV) strain Zaire; test: organism not typed; format: cell-based, Ebola virus; conditions: read-out: EC50 (nM) Antigen expression (high content imaging) Ebola Hela
[3] = tested on: ebolavirus (EBOV) strain Zaire; test: organism not typed; format: cell-based, Ebola virus; conditions: read-out: EC50 (nM) Antigen expression (high content imaging) Ebola Macrophage
[4] = tested on: EBOV-GFP (Ebola virus expressing the GFP reporter gene); test: microbe, parasite or virus in culture; format: cell-based; conditions: read-out: EC50 (nM) Reporter Virus EBOV-GFP HMVEC-TERT
[5] = tested on: NiV GFP (Nipah virus expressing the GFP reporter gene); test: microbe, parasite or virus in culture; format: cell-based; conditions: Henipavirus nipahense, read-out: EC50 (nM) Reporter Virus NiV GFP HMVEC-TERT
[6] = tested on: NiV-Luc (Nipah virus expressing the luciferase reporter gene); test: microbe, parasite or virus in culture; format: cell-based; conditions: Henipavirus nipahense, read-out: EC50 (nM) Reporter Virus NiV Luc HMVEC-TERT
NiV (Nipah virus) [7] = test: microbe, parasite or virus in culture; format: cell-based; conditions: Henipavirus nipahense, HeLa, read-out: EC50 (nM) Yield NiV Hela
[8] = tested on: MARV-GFP (Marburg virus expressing the GFP reporter gene); test: organism not typed; format: cell-based; conditions: Huh-7, read-out: EC50 (nM) Reporter Virus MARV-GFP Huh-7
NiV (Nipah virus) [9] = test: microbe, parasite or virus in culture; format: cell-based; conditions: Henipavirus nipahense, HeLa, read-out: EC50 (nM) CPE NiV Hela
[10] = tested on: EBOV-Luc (Ebola virus expressing the luciferase reporter gene); test: microbe, parasite or virus in culture; format: cell-based; conditions: Zaire ebolavirus, Huh-7, read-out: EC50 (nM) Reporter Virus EVOV-Luc Huh-7
Ebola virus (EBOV) [11] = test: microbe, parasite or virus in culture; format: cell-based; conditions: Zaire ebolavirus, Huh-7, read-out: EC50 (nM) Yield Ebola Huh-7
Ebola virus (EBOV) [12] = test: microbe, parasite or virus in culture; format: cell-based; conditions: Zaire ebolavirus, Huh-7, read-out: EC50 (nM) RNA Ebola Huh-7

| Structure (SMILES) | EC50 ([2]; HeLa) | EC50 ([3]; Macrophage) | EC50 ([4]; Zaire ebolavirus) | also measured |
| --- | --- | --- | --- | --- |
| CCC(CC)COC(=O)[C@H](C)N[P@@](=O)(OC[C@H]1O[C@@](C#N)(c2ccc3c(N)ncnn23)[C@H](O)[C@@H]1O)Oc1ccccc1 (single isomer, unassigned) [(R)-Diastereomer of Compound 9] | 210 nM | 112 nM | 62 nM | EC50 [1]: 70 nM |
| CCC(CC)COC(=O)[C@H](C)N[P@](=O)(OC[C@H]1O[C@@](C#N)(c2ccc3c(N)ncnn23)[C@H](O)[C@@H]1O)Oc1ccccc1 (single isomer, unassigned) [(S)-Diastereomer of Compound 9 (Compound 32)] | 100 nM | 87 nM | 40 nM | EC50 [1]: 81 nM |
| CC(C)OC(=O)[C@H](C)NP(=O)(OC[C@H]1O[C@@](C#N)(c2ccc3c(N)ncnn23)[C@H](O)[C@@H]1O)Oc1ccccc1 (stereo in doubt) [Compound 23, (S)-isopropyl 2-(((R)-(((2R,3S,4R,5R)-5-(4-aminopyrrolo[2,1-f][1,2,4]triazin-7-yl)-5-cyano-3,4-dihydroxytetrahydrofuran-2-yl)methoxy)(phenoxy)phosphoryl)amino)propanoate] | 1650 nM | 243 nM | 458 nM | EC50 [2]: 1840 nM; EC50 [3]: 350 nM and 297 nM |
| N#C[C@@]1(c2ccc3c(N)ncnn23)O[C@H](CO)[C@@H](O)[C@H]1O [Compound 1, (2R, 3R, 4S, 5R)-2-(4-aminopyrrolo[1,2-f][1,2,4]triazin-7-yl)-3,4-dihydroxy-5-(hydroxymethyl)tetrahydrofuran-2-carbonitrile] | > 20000 nM | > 20000 nM | 771 nM | EC50 [5]: 13400 nM; EC50 [1]: 1490 nM; EC50 [6]: 3500 nM; EC50 (NiV (Nipah virus) [7]): 1000 nM; EC50 [8]: 1730 nM; EC50 (NiV (Nipah virus) [9]): 1480 nM; EC50 [10]: 3130 nM |
| CCC(CC)COC(=O)[C@H](C)NP(=O)(OC[C@H]1O[C@@](C#N)(c2ccc3c(N)ncnn23)[C@H](O)[C@@H]1O)Oc1ccccc1 (stereo partly drawn) [Compound 9, (2S)-2-ethylbutyl 2-(((((2R,3S,4R,5R)-5-(4-aminopyrrolo[2,1-f][1,2,4]triazin-7-yl)-5-cyano-3,4-dihydroxytetrahydrofuran-2-yl)methoxy)(phenoxy)phosphoryl)amino) propanoate] | 290 nM |  |  | EC50 [5]: 60 nM; EC50 (Ebola virus (EBOV) [11]): 1030 nM; EC50 (Ebola virus (EBOV) [12]): 1 nM; EC50 [1]: 90 nM; EC50 [6]: 30 nM; EC50 [2]: 270 nM; EC50 [3]: 501 nM |
| CCOC(=O)[C@H](C)NP(=O)(OC[C@H]1O[C@@](C#N)(c2ccc3c(N)ncnn23)[C@H](O)[C@@H]1O)Oc1ccccc1 (stereo partly drawn) [Compound 10, (2S)-ethyl 2-(((((2R,3S,4R,5R)-5-(4-aminopyrrolo[2,1-f][1,2,4]triazin-7-yl)-5-cyano-3,4-dihydroxytetrahydrofuran-2-yl)methoxy)(phenoxy)phosphoryl)amino)propanoate] | 3200 nM |  |  |  |
| CC(C)(C)C(=O)SCCOP(=O)(OCCSC(=O)C(C)(C)C)OC[C@H]1O[C@@](C#N)(c2ccc3c(N)ncnn23)[C@H](O)[C@@H]1O [Compound 15] | 520 nM | 501 nM | 630 nM | EC50 [1]: 271 nM |
| CCOC(=O)[C@H](Cc1ccccc1)NP(=O)(OC[C@H]1O[C@@](C#N)(c2ccc3c(N)ncnn23)[C@H](O)[C@@H]1O)Oc1ccccc1 (stereo partly drawn) [Compound 21, (2S)-ethyl 2-(((((2R,3S,4R,5R)-5-(4-aminopyrrolo[2,1-f][1,2,4]triazin-7-yl)-5-cyano-3,4-dihydroxytetrahydrofuran-2-yl)methoxy)(phenoxy)phosphoryl)amino)-3-phenylpropanoate] |  | 270 nM | 905 nM | EC50 [4]: 473 nM |
| CCOC(=O)[C@@H](NP(=O)(OC[C@H]1O[C@@](C#N)(c2ccc3c(N)ncnn23)[C@H](O)[C@@H]1O)Oc1ccccc1)C(C)C (stereo partly drawn) [Compound 22, (2S)-ethyl 2-(((((2R,3S,4R,5R)-5-(4-aminopyrrolo[2,1-f][1,2,4]triazin-7-yl)-5-cyano-3,4-dihydroxytetrahydrofuran-2-yl)methoxy)(phenoxy)phosphoryl)amino)-3-methylbutanoate] | 11600 nM |  |  |  |
| C[C@H](NP(=O)(OC[C@H]1O[C@@](C#N)(c2ccc3c(N)ncnn23)[C@H](O)[C@@H]1O)Oc1ccccc1)C(=O)OC1CCC1 (stereo partly drawn) [Compound 24, (2S)-cyclobutyl 2-(((((2R,3S,4R,5R)-5-(4-aminopyrrolo[2,1-f][1,2,4]triazin-7-yl)-5-cyano-3,4-dihydroxytetrahydrofuran-2-yl)methoxy)(phenoxy)phosphoryl)amino)propanoate] | 785 nM |  |  |  |
| CC(C)OC(=O)[C@H](Cc1ccccc1)NP(=O)(OC[C@H]1O[C@@](C#N)(c2ccc3c(N)ncnn23)[C@H](O)[C@@H]1O)Oc1ccccc1 (stereo partly drawn) [Compound 25, (2S)-isopropyl 2-(((((2R,3S,4R,5R)-5-(4-aminopyrrolo[2,1-f][1,2,4]triazin-7-yl)-5-cyano-3,4-dihydroxytetrahydrofuran-2-yl)methoxy)(phenoxy)phosphoryl)amino)-3-phenylpropanoate] | 6720 nM |  |  |  |
| COC(=O)[C@H](C)N[P@](=O)(OC[C@H]1O[C@@](C#N)(c2ccc3c(N)ncnn23)[C@H](O)[C@@H]1O)Oc1ccccc1 [Compound 26, (S)-methyl 2-(((S)-(((2R,3S,4R,5R)-5-(4-aminopyrrolo[2,1-f][1,2,4]triazin-7-yl)-5-cyano-3,4-dihydroxytetrahydrofuran-2-yl)methoxy)(phenoxy)phosphoryl)amino)propanoate] | 970 nM | 1180 nM | 283 nM | EC50 [2]: 1100 nM; EC50 [3]: 1290 nM |
| C[C@H](N[P@](=O)(OC[C@H]1O[C@@](C#N)(c2ccc3c(N)ncnn23)[C@H](O)[C@@H]1O)Oc1ccccc1)C(=O)OCC(C)(C)C [Compound 27, (S)-neopentyl 2-(((S)-(((2R,3S,4R,5R)-5-(4-aminopyrrolo[2,1-f][1,2,4]triazin-7-yl)-5-cyano-3,4-dihydroxytetrahydrofuran-2-yl)methoxy)(phenoxy)phosphoryl)amino) propanoate] | 182 nM |  | 82 nM |  |
| C[C@H](NP(=O)(OC[C@H]1O[C@@](C#N)(c2ccc3c(N)ncnn23)[C@H](O)[C@@H]1O)Oc1ccccc1)C(=O)OC1CCCC1 (stereo partly drawn) [Compound 28, (2S)-cyclopentyl 2-(((((2R,3S,4R,5R)-5-(4-aminopyrrolo[2,1-f][1,2,4]triazin-7-yl)-5-cyano-3,4-dihydroxytetrahydrofuran-2-yl)methoxy)(phenoxy)phosphoryl)amino) propanoate] | 975 nM | 120 nM | 102 nM | EC50 [2]: 682 nM |
| C[C@H](NP(=O)(OC[C@H]1O[C@@](C#N)(c2ccc3c(N)ncnn23)[C@H](O)[C@@H]1O)Oc1ccccc1)C(=O)OC1CCCCC1 (stereo partly drawn) [Compound 29, (2S)-cyclohexyl 2-(((((2R,3S,4R,5R)-5-(4-aminopyrrolo[2,1-f][1,2,4]triazin-7-yl)-5-cyano-3,4-dihydroxytetrahydrofuran-2-yl)methoxy)(phenoxy)phosphoryl)amino) propanoate] | 275 nM |  |  |  |
| CCOC(=O)C(C)(C)NP(=O)(OC[C@H]1O[C@@](C#N)(c2ccc3c(N)ncnn23)[C@H](O)[C@@H]1O)Oc1ccccc1 (stereo partly drawn) [Compound 30, ethyl 2-(((((2R,3S,4R,5R)-5-(4-aminopyrrolo[2,1-f][1,2,4]triazin-7-yl)-5-cyano-3,4-dihydroxytetrahydrofuran-2-yl)methoxy)(phenoxy)phosphoryl)amino)-2-methylpropanoate] | > 20000 nM | 1230 nM | 11100 nM |  |
| CC(C)OC(=O)C(C)(C)NP(=O)(OC[C@H]1O[C@@](C#N)(c2ccc3c(N)ncnn23)[C@H](O)[C@@H]1O)Oc1ccccc1 (stereo partly drawn) [Compound 31, Isopropyl 2-(((((2R,3S,4R,5R)-5-(4-aminopyrrolo[2,1-f][1,2,4]triazin-7-yl)-5-cyano-3,4-dihydroxytetrahydrofuran-2-yl)methoxy)(phenoxy)phosphoryl)amino)-2-methylpropanoate] | > 20000 nM | 1230 nM | 11100 nM | EC50 [2]: > 10000 nM |
